Experimental data: patent US20230122911A1, “FORMULATIONS OF ENZALUTAMIDE” (Astellas Pharma Inc., priority 2012, published 2023)
Values after ≈ are worked out from the molar mass of the structure shown.

How the values were obtained:
[1] = Solubility test with polymers (Example 24); details: USP phosphate buffer (pH 6.8), pH 6.8, aqueous buffer, kinetic from dmso stock, after 5 min
physchem = details: USP phosphate buffer (pH 6.8), pH 6.8, aqueous buffer, kinetic from dmso stock

## CNC(=O)c1ccc(N2C(=S)N(c3ccc(C#N)c(C(F)(F)F)c3)C(=O)C2(C)C)cc1F [enzalutamide, 4-{3-[4-cyano-3-(trifluoromethyl)phenyl]-5,5-dimethyl-4-oxo-2-sulfanylideneimidazolidin-1-yl}-2-fluoro-N-methylbenzamide]
[1]; with copolyvidone
  solubility at 5 min: 47.4 µg/mL (≈ 102 µM)
[1]; with hydroxypropylmethylcellulose 2910 (TC-5E)
  solubility at 5 min: 42.7 µg/mL (≈ 91.9 µM)
[1]; with hydroxypropylmethylcellulose 2910 (TC-5R)
  solubility at 5 min: 39.2 µg/mL (≈ 84.4 µM)
[1]; with polyvinylpyrrolidone
  solubility at 5 min: 40.1 µg/mL (≈ 86.3 µM)
[1]; without polymer
  solubility at 5 min: 29 µg/mL (≈ 62.4 µM)
physchem
  solubility at 5 min: 31.1 µg/mL (≈ 67 µM)
